Legend:
Test in all cases: relative viability (nuclei count vs DMSO), 5 days (fraction); higher = more cells survive
Cediranib + Decitabine = compound: COc1cc2c(Oc3ccc4[nH]c(C)cc4c3F)ncnc2cc1OCCCN1CCCC1 [Cediranib] + Nc1ncn([C@H]2C[C@H](O)[C@@H](CO)O2)c(=O)n1 [Decitabine] (partner 2 µM)
How it was run: (§1)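 Relative viability is defined as nuclei in treated wells over nuclei in vehicle wells. Duplicate plates were run and medians reported. Lung cancer cell lines in 1536-well plates were dosed by pin tool one day after seeding, with one drug or with a fixed anchor-drug dose plus five library-drug doses (not always all listed) in √10 steps, and nuclei were counted after 5 days.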

Cediranib + Palbociclib = compound: COc1cc2c(Oc3ccc4[nH]c(C)cc4c3F)ncnc2cc1OCCCN1CCCC1 [Cediranib] + CC(=O)c1c(C)c2cnc(Nc3ccc(N4CCNCC4)cn3)nc2n(C2CCCC2)c1=O [Palbociclib] (partner 0.5 µM)
How it was run: as §1

Decitabine + Foretinib = compound: Nc1ncn([C@H]2C[C@H](O)[C@@H](CO)O2)c(=O)n1 [Decitabine] + COc1cc2c(Oc3ccc(NC(=O)C4(C(=O)Nc5ccc(F)cc5)CC4)cc3F)ccnc2cc1OCCCN1CCOCC1 [Foretinib] (partner 0.25 µM)
How it was run: as §1

[1] = compound: O=C(C[C@H]1NCCC[C@@H]1O)Cn1cnc2cc(Br)c(Cl)cc2c1=O (racemic) [Halofuginone] + C[C@]1(O)C[C@@H](c2nc(-c3ccc4ccc(-c5ccccc5)nc4c3)c3c(N)nccn32)C1 [Linsitinib] (partner 1 µM)
How it was run: as §1

| Cell Line | relative viability (Cediranib + Decitabine; first compound 0.04 µM) | relative viability (Cediranib + Decitabine; first compound 0.1265 µM) | relative viability (Cediranib + Decitabine; first compound 0.4 µM) | relative viability (Cediranib + Decitabine; first compound 1.265 µM) | relative viability (Cediranib + Decitabine; first compound 4 µM) | relative viability (Cediranib + Palbociclib; first compound 0.04 µM) | relative viability (Cediranib + Palbociclib; first compound 0.4 µM) | relative viability (Cediranib + Palbociclib; first compound 1.265 µM) | relative viability (Cediranib + Palbociclib; first compound 4 µM) | relative viability (Decitabine + Foretinib; first compound 0.04 µM) | relative viability (Decitabine + Foretinib; first compound 0.1265 µM) | relative viability (Decitabine + Foretinib; first compound 0.4 µM) | relative viability (Decitabine + Foretinib; first compound 1.265 µM) | relative viability (Decitabine + Foretinib; first compound 4 µM) | relative viability ([1]; first compound 0.001 µM) | relative viability ([1]; first compound 0.003162 µM) | relative viability ([1]; first compound 0.01 µM) | relative viability ([1]; first compound 0.03162 µM) | relative viability ([1]; first compound 0.1 µM) | relative viability (Cediranib + Palbociclib; first compound 0.1265 µM) |
| --- | --- | --- | --- | --- | --- | --- | --- | --- | --- | --- | --- | --- | --- | --- | --- | --- | --- | --- | --- | --- |
| HCC-78 | 0.74 | 0.64 | 0.747 | 0.605 | 0.771 | 0.55 | 0.507 | 0.53 | 0.592 | 0.648 | 0.58 | 0.588 | 0.455 | 0.433 | 0.479 | 0.579 | 0.484 | 0.706 | 0.312 | – |
| HCC-366 | 0.379 | 0.318 | 0.305 | 0.364 | 0.338 | 0.451 | 0.366 | 0.411 | 0.262 | 0.825 | 0.743 | 0.448 | 0.211 | 0.128 | 0.638 | 0.69 | 0.692 | 0.618 | 0.126 | 0.404 |
| HCC-827 | 0.314 | 0.23 | 0.358 | 0.297 | 0.311 | 0.559 | 0.433 | 0.629 | 0.424 | 0.351 | 0.383 | 0.333 | 0.3 | 0.279 | 0.968 | 0.983 | 0.978 | 1.02 | 0.892 | 0.54 |
| HOP-62 | 0.255 | 0.246 | 0.215 | 0.207 | 0.203 | 0.482 | 0.409 | 0.426 | 0.486 | 0.773 | 0.53 | 0.315 | 0.197 | 0.218 | 1.1 | 1.07 | 1.09 | 0.95 | 0.302 | 0.517 |
| IA-LM | – | – | – | – | – | – | – | – | – | 0.543 | 0.502 | 0.282 | 0.204 | 0.108 | 0.735 | 0.78 | 0.547 | 0.775 | 0.434 | – |
| LC-2-ad | 0.803 | 0.779 | 0.784 | 0.744 | 0.822 | 0.527 | 0.456 | 0.494 | 0.399 | 0.68 | 0.889 | 0.794 | 0.557 | 0.516 | 0.843 | 0.796 | 0.763 | 0.818 | 0.264 | 0.55 |
| LCLC-97TM1 | 0.234 | – | 0.223 | 0.196 | 0.248 | 0.277 | 0.194 | 0.211 | 0.277 | 0.583 | 0.728 | 0.418 | 0.256 | 0.177 | 0.209 | 0.189 | 0.187 | 0.179 | 0.163 | – |
| LCLC-103H | 0.789 | 0.815 | 0.781 | 0.731 | 0.761 | 0.494 | 0.511 | 0.469 | 0.521 | 0.945 | 0.807 | 0.717 | 0.636 | 0.519 | 1.12 | 1.48 | 1.04 | 1.09 | 1.01 | 0.47 |
| LK-2 | 0.287 | 0.231 | 0.396 | 0.269 | 0.273 | 0.998 | 0.687 | 0.764 | 0.724 | 1.45 | 1.38 | 0.849 | 0.39 | 0.381 | 0.722 | 0.656 | 0.433 | 0.609 | 0.452 | 0.693 |
| NCI-H522 | 0.702 | 0.746 | 0.76 | 0.661 | 0.656 | 1.04 | 0.891 | 0.998 | 1.07 | – | – | – | – | – | – | – | – | – | – | 0.899 |
| NCI-H596 | 1.04 | 1.1 | 0.978 | 0.918 | 1.18 | – | – | – | – | 0.764 | 0.819 | – | 0.625 | 0.582 | 1.13 | 1.04 | 1.07 | 1.12 | 0.732 | – |
| NCI-H1299 | – | – | – | – | – | – | – | – | – | 1.09 | 1.13 | 1.03 | 1.03 | 1.01 | 1.01 | 1.23 | 0.972 | 0.955 | 0.732 | – |
| NCI-H1563 | – | – | – | – | – | – | – | – | – | 0.984 | 0.886 | 1.14 | 0.949 | 0.917 | 1.3 | 1.3 | 0.963 | 0.636 | 0.603 | – |
| NCI-H1623 | – | – | – | – | – | – | – | – | – | 0.706 | 0.822 | 0.657 | 0.53 | 0.549 | – | – | – | – | – | – |
| NCI-H1648 | 0.44 | 0.501 | 0.448 | 0.48 | 0.481 | 0.28 | 0.287 | 0.307 | 0.633 | – | – | – | – | – | – | – | – | – | – | 0.242 |
| NCI-H1650 | 0.408 | 0.482 | 0.354 | 0.496 | 0.385 | 0.421 | 0.304 | 0.404 | 0.334 | 0.903 | 0.855 | 0.553 | 0.512 | 0.301 | – | – | – | – | – | 0.328 |
| NCI-H1703 | – | – | – | – | – | – | – | – | – | 0.371 | 0.341 | 0.455 | 0.377 | 0.271 | 0.944 | 1.03 | 0.617 | 0.559 | 0.353 | – |
| NCI-H1792 | – | 0.503 | 0.48 | 0.501 | 0.715 | 0.599 | 0.584 | 0.739 | 0.682 | – | – | – | – | – | 0.602 | 0.501 | 0.642 | 0.569 | 0.523 | 0.607 |
| NCI-H2170 | 0.522 | – | 0.473 | 0.481 | 0.515 | 0.438 | 0.371 | 0.372 | 0.381 | 0.87 | 0.85 | 0.767 | 0.437 | 0.393 | – | – | – | – | – | – |
| NCI-H2228 | – | – | – | – | – | 0.648 | 0.752 | 0.615 | 0.787 | 0.593 | 0.532 | 0.352 | 0.273 | 0.207 | 0.589 | 0.926 | 0.69 | 0.394 | 0.199 | 1.02 |
| NCI-H2342 | 0.83 | 0.827 | 0.732 | 0.74 | 0.812 | 0.562 | 0.451 | 0.534 | 0.479 | 1.29 | 1.03 | 1.1 | 0.674 | 0.568 | – | – | – | – | – | 0.52 |
| SW 900 | 0.45 | 0.421 | 0.425 | 0.444 | 0.53 | 0.569 | 0.552 | 0.575 | 0.594 | 0.489 | 0.305 | 0.206 | 0.167 | 0.202 | – | – | – | – | – | 0.677 |

Reference: the supplement of paper PMC10307832
